Some test systems named below: HL-60(TB) leukemia; NCI/ADR-RES ovarian; OVCAR-4 ovarian; RPMI-8226 leukemia; RXF 393 renal; SF-295 CNS; SNB-75 CNS; UO-31 renal; SR leukemia; BT-549 breast; DU-145 prostate; PC-3 prostate.
Holding throughout (test): NCI anticancer screen, dose series, 48 h

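Growth conditions: 96-well plates. Treatment: test compound, 48 hours, 5 concentrations. Analysis: linear interpolation between bracketing concentrations; unreached endpoints set to highest concentration. Here, GI50 denotes the concentration required for 50% inhibition of growth. TGI: concentration producing complete growth inhibition.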

As for `CCCCCCCCCCCCCCCCSCC(COC)COP(=O)([O-])OCC[N+](C)(C)C` (configuration not stated), the TGI with HL-60(TB) leukemia is 4.4 µM; with NCI/ADR-RES ovarian, 30 µM; in the assay with OVCAR-4 ovarian, 15.3 µM; in the assay with RPMI-8226 leukemia it was 8.48 µM; in the assay with RXF 393 renal it was 15.5 µM; with SF-295 CNS, 11.6 µM. Also, the TGI with SNB-75 CNS worked out at 14.3 µM; with UO-31 renal, 20.3 µM.
On to `C=C1C[C@@H](O)C[C@@]2(C)C[C@@H]3OC(=O)C(=C)[C@@H]3C[C@H]12`, for which the TGI in the assay with HL-60(TB) leukemia was determined as 5.94 µM; in the assay with NCI/ADR-RES ovarian, 28.4 µM; in the assay with OVCAR-4 ovarian it was 31.4 µM; with RPMI-8226 leukemia it was 34.5 µM; in the assay with RXF 393 renal, 20.3 µM; in the assay with SF-295 CNS, 54.6 µM. The values for the TGI with SNB-75 CNS and in the assay with UO-31 renal were > 35.5 µM and 31.2 µM, respectively.
For `C=C1C(=O)OC2(C)C3CCC(C3)C12` (configuration not stated), the TGI in the assay on HL-60(TB) leukemia was 84.6 µM; in the assay on OVCAR-4 ovarian, > 100 µM; in the assay on RPMI-8226 leukemia it was > 100 µM; with SF-295 CNS it was > 100 µM; in the assay on SNB-75 CNS, > 100 µM; in the assay with SR leukemia, > 100 µM. In addition, the TGI in the assay with UO-31 renal was > 100 µM.
On to `Cc1c2c(cc3c1[nH]c1ccccc13)C=NCC2`, for which the TGI in the assay with HL-60(TB) leukemia worked out at 27.8 µM; in the assay on NCI/ADR-RES ovarian, 63.3 µM; in the assay on OVCAR-4 ovarian, 53 µM; in the assay on RPMI-8226 leukemia, 51.6 µM; in the assay on RXF 393 renal it was 16.4 µM; in the assay with SF-295 CNS it was 27.1 µM. Also, the figures for the TGI in the assay with SNB-75 CNS and in the assay with UO-31 renal were 39.5 µM and 59.9 µM, respectively.
As to `CCOC(=O)c1sc2nc(SC)nc3c2c1NC(=O)CN3c1cccc(F)c1`, the TGI turned out to be 21.3 µM in the assay on BT-549 breast; 52.7 µM with DU-145 prostate; 24.4 µM in the assay on HL-60(TB) leukemia; 42 µM with OVCAR-4 ovarian; 34.4 µM with PC-3 prostate; 46.8 µM with RPMI-8226 leukemia. The TGI was 32 µM in the assay with RXF 393 renal, 40.2 µM in the assay with SF-295 CNS, > 100 µM in the assay with SR leukemia and 35.1 µM with UO-31 renal.
`Cc1c(C(=O)N2CCN(c3ccc([N+](=O)[O-])cc3)CC2)[n+](=O)c2cc(Cl)c(Cl)cc2n1[O-]`: the TGI in the assay with BT-549 breast was 33 µM; in the assay on DU-145 prostate, 43.9 µM; in the assay on HL-60(TB) leukemia, > 100 µM; with NCI/ADR-RES ovarian, 32.7 µM; with OVCAR-4 ovarian, 29.5 µM; in the assay with PC-3 prostate it was 45 µM. In addition, the TGI in the assay with RPMI-8226 leukemia stood at 63.4 µM; in the assay with RXF 393 renal, 27.5 µM; in the assay on SF-295 CNS, 34.2 µM; in the assay with SR leukemia, 61.2 µM.
With `Cc1cc(O)c2c(c1O)C(=O)C13C(=C2O)C(=O)C2C(O)C1C1C(O)C3C(=O)C3=C(O)c4c(O)cc(C)c(O)c4C(=O)C321` (configuration not stated), the TGI in the assay with NCI/ADR-RES ovarian was 12.2 µM; with OVCAR-4 ovarian, 7.24 µM; in the assay on RPMI-8226 leukemia, < 0.0312 µM; in the assay with RXF 393 renal, 0.295 µM; with SF-295 CNS it was 0.311 µM; in the assay on SNB-75 CNS, 0.841 µM. Further, the TGI in the assay on UO-31 renal was determined as 0.214 µM.
Consider `CNc1ccc(-c2nc3cc(C)ccc3o2)cc1`, for which the TGI in the assay on BT-549 breast, with DU-145 prostate, with HL-60(TB) leukemia, in the assay with NCI/ADR-RES ovarian, in the assay on OVCAR-4 ovarian and with PC-3 prostate was > 100 µM throughout. In addition, the TGI is > 100 µM in the assay with RPMI-8226 leukemia; 79.8 µM with RXF 393 renal; > 100 µM in the assay with SF-295 CNS; 33.7 µM in the assay with SNB-75 CNS; > 100 µM with UO-31 renal.
For the molecule `CN(C(=O)Cc1ccc(Cl)c(Cl)c1)[C@H]1CCCC[C@@H]1[N+]1(C)CCCC1`, the TGI in the assay with BT-549 breast, in the assay with DU-145 prostate, in the assay on NCI/ADR-RES ovarian, in the assay with OVCAR-4 ovarian, in the assay on PC-3 prostate and with RPMI-8226 leukemia was > 100 µM throughout. The TGI in the assay with SF-295 CNS, with SR leukemia and in the assay on UO-31 renal was > 100 µM each time.
For the molecule `O=C(CC/C=C(/CS(=O)(=O)c1ccccc1)S(=O)(=O)c1ccccc1)c1ccccc1`, the TGI in the assay on HL-60(TB) leukemia, with OVCAR-4 ovarian, in the assay on RPMI-8226 leukemia, in the assay on RXF 393 renal, in the assay with SF-295 CNS and in the assay on SNB-75 CNS was > 100 µM throughout. Further, the TGI in the assay with SR leukemia and in the assay with UO-31 renal was > 100 µM each time.
With `CC(=O)[C@@H]1CCC=C2CC[C@]3(C)[C@@H](CC[C@@H]4[C@@]5(C)CCCNC(C)(C)[C@@H]5CC[C@]43C)[C@H]21`, the GI50 was 1.77 µM in the assay with DU-145 prostate; 1.98 µM with NCI/ADR-RES ovarian; 1.86 µM with OVCAR-4 ovarian; 1.65 µM in the assay with PC-3 prostate; 1.74 µM in the assay with RXF 393 renal; 1.81 µM in the assay with SF-295 CNS. Also, the GI50 with UO-31 renal was 1.52 µM. Further, the TGI was found to be 3.33 µM with DU-145 prostate; 3.8 µM with NCI/ADR-RES ovarian; 3.39 µM in the assay with OVCAR-4 ovarian; 3.06 µM in the assay on PC-3 prostate; 3.32 µM in the assay on RXF 393 renal; 3.26 µM in the assay on SF-295 CNS. The TGI in the assay on UO-31 renal amounted to 2.89 µM.
As to `COc1cccc(-c2ccc3c4c2O[C@H]2c5[nH]c6ccccc6c5C[C@@]5(O)[C@@H](C3)N(CC3CC3)CC[C@]425)c1`, the TGI with BT-549 breast was determined as 15.9 µM; with DU-145 prostate, 6.91 µM; in the assay on NCI/ADR-RES ovarian, 5.21 µM; in the assay with OVCAR-4 ovarian, 3.27 µM; in the assay on PC-3 prostate, 2.48 µM; in the assay with RPMI-8226 leukemia, 5.25 µM. Further, the TGI with RXF 393 renal is 3.03 µM; in the assay with SF-295 CNS, 3.08 µM; in the assay on SR leukemia it was 5.51 µM; in the assay on UO-31 renal it was 3.1 µM.
`O=C(NCCCCCCNC(=O)n1cc(F)c(=O)[nH]c1=O)NCCCOCCOCCCNC(=O)C(O)C(O)C(O)C(O)CO` (configuration not stated): the TGI in the assay on HL-60(TB) leukemia, with NCI/ADR-RES ovarian, in the assay on OVCAR-4 ovarian, in the assay with RPMI-8226 leukemia, in the assay on RXF 393 renal and in the assay on SF-295 CNS was > 2.5 µM in each case. Moreover, the TGI with SNB-75 CNS and in the assay with UO-31 renal was > 2.5 µM throughout.
Turning to `COc1ccc(S(=O)(=O)O)cc1-n1nc(C(=O)Nc2ccccc2)n[n+]1-c1cc(S(=O)(=O)[O-])ccc1OC`, the TGI in the assay on DU-145 prostate, in the assay on HL-60(TB) leukemia, with NCI/ADR-RES ovarian, with OVCAR-4 ovarian, in the assay on PC-3 prostate and in the assay with RPMI-8226 leukemia was > 100 µM each time. The TGI in the assay with RXF 393 renal, with SF-295 CNS, in the assay with SNB-75 CNS, with SR leukemia and with UO-31 renal was > 100 µM throughout.
Turning to `CC(=O)NCCC1CN(C(=O)/C=C\C#C[Si](C)(C)C)c2ccccc21` (configuration not stated), the TGI in the assay on BT-549 breast is > 100 µM; in the assay on DU-145 prostate, > 100 µM; in the assay with HL-60(TB) leukemia, 81.3 µM; with NCI/ADR-RES ovarian, 54.6 µM; in the assay on OVCAR-4 ovarian, 63.3 µM; with PC-3 prostate it was > 100 µM. In addition, the TGI is > 100 µM in the assay on RPMI-8226 leukemia, 55.3 µM in the assay with RXF 393 renal, > 100 µM in the assay on SF-295 CNS and > 100 µM in the assay on UO-31 renal.
On to `Nc1nc2c(c(=O)[nH]1)N(C=O)C(CNc1ccc(C(=O)N[C@@H](CCC(=O)O)C(=O)O)cc1)CN2` (some centres not stated), for which the TGI was > 31.4 µM with HL-60(TB) leukemia; > 125 µM in the assay on NCI/ADR-RES ovarian; > 125 µM in the assay on OVCAR-4 ovarian; > 125 µM in the assay on RPMI-8226 leukemia; > 125 µM with RXF 393 renal; > 125 µM with SF-295 CNS. For the same molecule, the TGI with SNB-75 CNS and in the assay on UO-31 renal was > 125 µM each time.
Regarding `O=C(Nc1c[nH]c(=O)[nH]c1=O)C(Cl)Cl`, the TGI with DU-145 prostate, in the assay with HL-60(TB) leukemia, with NCI/ADR-RES ovarian, in the assay with OVCAR-4 ovarian, in the assay with PC-3 prostate and in the assay on RPMI-8226 leukemia was > 100 µM throughout. The TGI with RXF 393 renal, with SF-295 CNS, in the assay on SNB-75 CNS and in the assay on UO-31 renal was > 100 µM throughout.
On to `CCN(CC)CCCOC(=O)/C=C/c1c(C)[nH]c(=O)[nH]c1=O`, for which the TGI was > 625 µM with HL-60(TB) leukemia; > 625 µM in the assay with NCI/ADR-RES ovarian; > 394 µM with OVCAR-4 ovarian; > 625 µM with RPMI-8226 leukemia; > 99.1 µM in the assay with RXF 393 renal; > 625 µM with SF-295 CNS. Moreover, the TGI with SNB-75 CNS and in the assay with UO-31 renal was > 625 µM in each case.
Turning to `CC(=O)OCC1OC(n2cc(F)c(=O)[nH]c2=O)C(N)C(OC(C)=O)C1OC(C)=O` (configuration not stated), the TGI in the assay with HL-60(TB) leukemia, in the assay with NCI/ADR-RES ovarian, with OVCAR-4 ovarian, with RPMI-8226 leukemia, in the assay on RXF 393 renal and with SF-295 CNS was > 100 µM in each case. The TGI with SNB-75 CNS and in the assay with UO-31 renal was > 100 µM throughout.
With `Cc1sc2nc(-c3cc([N+](=O)[O-])c(Cl)cc3Cl)c(/C=N/N=C(N)N)n2c1C`, the TGI in the assay on BT-549 breast is 12 µM; in the assay on DU-145 prostate it was 39.1 µM; with NCI/ADR-RES ovarian, > 100 µM; in the assay with OVCAR-4 ovarian it was 9 µM; with PC-3 prostate, 36.2 µM; with RPMI-8226 leukemia it was 54 µM. In addition, the TGI with RXF 393 renal worked out at 20.6 µM; with SF-295 CNS, 36.4 µM; with UO-31 renal, 26.4 µM.

(Values after PubChem BioAssay (NCI).)
